Values of other authors in patent publication US20190151262A1, “USE OF N-ACETYLCYSTEINE AMIDE FOR DECREASING INTRACRANIAL PRESSURE” (priority 2013, published 2019).

System: intra-cranial pressure
Conditions: previously tried anti-oxidant; Thomale et al. Intensive Care Med. 32:149-155 (2006)

Which “decrease of intra-cranial pressure” value does the source give for `CC(=O)N[C@@H](CS)C(=O)O` [NAC, n-acetylcysteine] here?
The value was “no success”.
